According to patent publication US20210204549A1, “BACILLUS AMYLOLIQUEFACIENS AND NEONICOTINOIDS MIXTURES AND METHODS OF USE THEREOF” (Valent U.S.A. LLC, priority 2020, published 2021):

Test system: tomato spotted wilt virus ("TSWV")
Test: Greenhouse test of in-furrow treatments on peanut plants infected with tomato spotted wilt virus
Assay type: in vivo
Details: peanut plants (Arachis hypogaea), furrow spray; imidacloprid 254.85 g/HA; 63 days after treatment
Protocol: The following greenhouse test was conducted from May 31, 2018 to Oct. 22, 2018 in Tift County, Georgia. Peanut plants (Arachis hypogaea) were used in the test as the crop plant. 6 seeds were planted per foot per row giving 360 seeds per plot. The peanut plants were infected with tomato spotted wilt virus (“TSWV”). Furrows were sprayed with B. amyloliquefaciens strain PTA-4838, imidacloprid, fluopyram and/or Mycorrhizae consortium at the rates disclosed in Table 1 prior to seedling plating. The plants were then infected with TSWV. Number of live plants were counted at 63 days after treatment. Percent TSWV infection was calculated as percent of row feet infected per plot. All data was analyzed using Bartlett's test and with p value of […] for determining significance of the results.

O=[N+]([O-])NC1=NCCN1Cc1ccc(Cl)nc1 [Imidacloprid, imidacloprid] was tested, and the “% Control” value was 96.4a %.
